Assay results from patent publication US6683078B2, “Use of sulfonyl aryl or heteroaryl hydroxamic acids and derivatives thereof as aggrecanase inhibitors” (priority 2001, dated 2004).
Structures can show the parent of a compound that is named as a salt. One block for each compound: values may come before it.

Columns and labels:
Recombinant human MMP-1 = biological target: T1, Recombinant human MMP-1 (Homo sapiens, UniProt P03956); assay: In vitro MMP inhibition, fluorogenic peptide substrate; type: biochemical
T1 construct: made in house; host or cells: transfected HT-1080 cells
T1 sequence (P03956 100-469): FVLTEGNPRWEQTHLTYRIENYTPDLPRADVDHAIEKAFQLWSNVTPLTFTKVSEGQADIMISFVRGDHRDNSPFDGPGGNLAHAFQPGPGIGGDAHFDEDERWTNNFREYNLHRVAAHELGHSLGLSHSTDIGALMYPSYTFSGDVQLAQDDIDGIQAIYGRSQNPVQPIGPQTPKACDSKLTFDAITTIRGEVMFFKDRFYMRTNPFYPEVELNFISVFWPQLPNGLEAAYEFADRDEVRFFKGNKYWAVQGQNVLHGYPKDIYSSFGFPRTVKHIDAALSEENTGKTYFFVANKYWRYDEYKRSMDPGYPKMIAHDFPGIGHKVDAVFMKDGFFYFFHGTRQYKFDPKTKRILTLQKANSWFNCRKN

[1] = system: solid tumor cancers (colorectal, pancreatic, ovarian, and prostate); settings: cited from earlier work
Recombinant human MMP-8 = biological target: T2, Recombinant human MMP-8 (Homo sapiens, UniProt P22894); assay: In vitro MMP inhibition, fluorogenic peptide substrate; type: biochemical; settings: Table B
T2 construct: made in house

Recombinant human MMP-13 = biological target: T3, Recombinant human MMP-13 (Homo sapiens, UniProt P45452); assay: as above; type: biochemical
T3 construct: made in house; host or cells: baculovirus / insect cells

Recombinant human MMP-2 = biological target: T4, Recombinant human MMP-2 (Homo sapiens, UniProt P08253); assay: as above; type: biochemical
T4 construct: made in house
T4 sequence (P08253 110-660): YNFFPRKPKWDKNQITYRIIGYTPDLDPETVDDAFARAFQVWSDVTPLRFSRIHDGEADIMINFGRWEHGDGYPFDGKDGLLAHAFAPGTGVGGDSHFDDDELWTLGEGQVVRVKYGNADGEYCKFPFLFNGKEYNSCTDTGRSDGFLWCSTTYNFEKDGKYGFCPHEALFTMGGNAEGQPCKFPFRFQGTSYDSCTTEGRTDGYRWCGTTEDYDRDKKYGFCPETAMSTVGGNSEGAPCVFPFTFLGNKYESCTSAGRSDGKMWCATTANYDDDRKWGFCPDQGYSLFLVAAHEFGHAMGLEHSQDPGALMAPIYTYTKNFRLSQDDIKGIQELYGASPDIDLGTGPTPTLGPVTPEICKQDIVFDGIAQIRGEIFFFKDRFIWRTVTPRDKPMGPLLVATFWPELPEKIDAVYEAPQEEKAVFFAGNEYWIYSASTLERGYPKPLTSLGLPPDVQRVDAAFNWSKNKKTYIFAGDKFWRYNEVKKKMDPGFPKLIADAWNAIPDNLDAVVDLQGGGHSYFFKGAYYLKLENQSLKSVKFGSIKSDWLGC

Recombinant human MMP-14 = biological target: T5, Recombinant human MMP-14 (Homo sapiens, UniProt P50281); assay: as above; type: biochemical; settings: Table B
T5 construct: made in house

Recombinant human MMP-3 = biological target: T6, Recombinant human MMP-3 (Homo sapiens, UniProt P08254); assay: as above; type: biochemical; settings: Table B
T6 construct: made in house

Recombinant human MMP-9 = biological target: T7, Recombinant human MMP-9 (Homo sapiens, UniProt P14780); assay: as above; type: biochemical; settings: Table B
T7 construct: made in house
T7 sequence (P14780 107-707 limits assumed): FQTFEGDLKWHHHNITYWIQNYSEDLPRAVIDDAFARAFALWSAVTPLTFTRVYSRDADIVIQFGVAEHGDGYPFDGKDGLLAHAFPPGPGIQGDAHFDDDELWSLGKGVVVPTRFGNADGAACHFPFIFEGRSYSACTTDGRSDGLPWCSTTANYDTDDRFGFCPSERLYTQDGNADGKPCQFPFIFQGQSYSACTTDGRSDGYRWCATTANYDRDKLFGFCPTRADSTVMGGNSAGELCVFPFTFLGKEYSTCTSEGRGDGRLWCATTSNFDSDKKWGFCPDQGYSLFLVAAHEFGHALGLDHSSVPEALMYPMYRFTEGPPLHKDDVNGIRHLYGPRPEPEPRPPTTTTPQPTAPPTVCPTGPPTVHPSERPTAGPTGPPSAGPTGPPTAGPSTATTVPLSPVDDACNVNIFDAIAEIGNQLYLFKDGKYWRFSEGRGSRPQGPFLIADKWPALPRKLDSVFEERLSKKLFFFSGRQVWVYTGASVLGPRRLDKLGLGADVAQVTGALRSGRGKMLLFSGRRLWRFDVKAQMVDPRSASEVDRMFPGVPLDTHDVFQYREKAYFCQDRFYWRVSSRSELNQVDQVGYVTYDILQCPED

T6 sequence (P08254 100-477): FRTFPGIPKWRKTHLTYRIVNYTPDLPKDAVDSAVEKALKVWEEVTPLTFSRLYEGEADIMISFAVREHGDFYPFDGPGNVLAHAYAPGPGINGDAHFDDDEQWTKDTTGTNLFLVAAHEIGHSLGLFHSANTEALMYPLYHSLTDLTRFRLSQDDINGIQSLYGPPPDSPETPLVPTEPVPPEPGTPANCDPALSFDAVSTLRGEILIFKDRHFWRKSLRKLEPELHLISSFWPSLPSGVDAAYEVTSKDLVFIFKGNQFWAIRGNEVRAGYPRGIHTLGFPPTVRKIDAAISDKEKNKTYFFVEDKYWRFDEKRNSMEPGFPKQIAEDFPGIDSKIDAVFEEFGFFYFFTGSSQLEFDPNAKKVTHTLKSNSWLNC
T2 sequence (P22894 101-467): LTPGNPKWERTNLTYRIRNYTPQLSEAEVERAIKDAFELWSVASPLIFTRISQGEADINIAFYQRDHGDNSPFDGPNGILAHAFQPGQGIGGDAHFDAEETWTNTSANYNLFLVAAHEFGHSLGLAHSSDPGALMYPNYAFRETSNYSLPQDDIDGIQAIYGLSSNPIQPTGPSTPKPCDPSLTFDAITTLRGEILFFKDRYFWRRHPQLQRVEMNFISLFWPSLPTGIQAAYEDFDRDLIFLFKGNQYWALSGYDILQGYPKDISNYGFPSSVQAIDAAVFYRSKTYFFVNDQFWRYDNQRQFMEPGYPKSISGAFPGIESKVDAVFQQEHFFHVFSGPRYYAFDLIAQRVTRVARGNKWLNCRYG

- IC50 (Recombinant human MMP-1; Inhibition Table A): > 10000 nM
Structure (SMILES): O=C(NO)c1ccccc1S(=O)(=O)N1CCC(c2ccccc2)CC1 [Example 9, N-Hydroxy-2-[[4-(phenyl)-1-piperidnyl]sulfonyl]benzamide]

Structure (SMILES): CNC(=O)[C@@H](NC(=O)[C@H](CC(C)C)[C@H](O)C(=O)NO)C(C)(C)C [Marimastat]
- most common drug-related toxicity ([1]; clinical trials): musculoskeletal pain and stiffness
- effect on cancer-specific antigens used as surrogate markers for biological activity ([1]; meta analysis of Phase I/II data, patients with advanced, treatment-refractory solid tumors): dose-related reduction in the rise of cancer-specific antigens

- IC50 (Recombinant human MMP-8): 107 nM
Structure (SMILES): COc1ccc(S(=O)(=O)N2CCC(Sc3ccccc3)CC2)c(C(=O)NO)c1OC [Example 24]

- IC50 (Recombinant human MMP-13; Table B): 6700 nM
- IC50 (Recombinant human MMP-2; Table B): 1000 nM
Structure (SMILES): O=C(NO)c1ccccc1S(=O)(=O)N1CCN(C(=O)c2ccccc2)CC1 [Example 53, 2-[(4-benzoyl-1-piperazinyl)sulfonyl]-N-hydroxybenzamide]

- IC50 (Recombinant human MMP-13; Inhibition Table A): 9000 nM
- IC50 (Recombinant human MMP-1; Inhibition Table A): > 10000 nM
- IC50 (Recombinant human MMP-2; Inhibition Table A): 3500 nM
Structure (SMILES): O=C(NO)c1ccccc1S(=O)(=O)Nc1ccc(Oc2ccccc2)cc1 [Example 15, N-hydroxy-2-[[(4-phenoxyphenyl)-amino]sulfonyl]benzamide]

- IC50 (Recombinant human MMP-1; Table B): > 10000 nM
Structure (SMILES): COc1ccccc1-c1ccc(OC2CCN(S(=O)(=O)c3ccc(OC)c(OC)c3C(=O)NO)CC2)cc1 [Example 22]

- IC50 (Recombinant human MMP-8): 7.1 nM
- IC50 (Recombinant human MMP-13; Table B): 17.9 nM
- IC50 (Recombinant human MMP-14): 416 nM
- IC50 (Recombinant human MMP-1; Table B): > 10000 nM
- IC50 (Recombinant human MMP-2; Table B): 0.4 nM
- IC50 (Recombinant human MMP-3): 1460 nM
- IC50 (Recombinant human MMP-9): 40.1 nM
Structure (SMILES): COc1ccc(S(=O)(=O)N2CCN(c3ccc(OC(F)(F)F)cc3)CC2)c(C(=O)NO)c1OC [Example 26]

- IC50 (Recombinant human MMP-1; Inhibition Table A): > 10000 nM
Structure (SMILES): COc1ccc(S(=O)(=O)N2CCC(Oc3ccc(C(F)(F)F)cc3)CC2)c(C(=O)NO)c1OC [Example 16, N-hydroxy-2,3-dimethoxy-6-[[4-[4-(trifluoromethyl)phenoxy]-1-piperidinyl)sulfonyl]benzamide]

- IC50 (Recombinant human MMP-13; Inhibition Table A): > 10000 nM
- IC50 (Recombinant human MMP-1; Inhibition Table A): > 10000 nM
Structure (SMILES): O=C(NO)c1ccccc1NS(=O)(=O)c1ccc(Oc2ccccc2)cc1 [Example 5, N-hydroxy-2-[[(4-phenoxyphenyl)-sulfonyl]amino]benzamide]

- IC50 (Recombinant human MMP-1; Inhibition Table A): > 10000 nM
Structure (SMILES): O=C(NO)c1c(F)cccc1S(=O)(=O)N1CCC(Oc2ccc(C(F)(F)F)cc2)CC1 [Example 19]

- IC50 (Recombinant human MMP-1; Table B): > 10000 nM
Structure (SMILES): O=C(NO)c1ccccc1S(=O)(=O)N1CCC(Oc2ccccn2)CC1 [Example 44, N-hydroxyl-2-[[4-(2-pyridinyloxy)-1-piperidinyl]sulfonyl]benzamide, monohydrochloride]

- IC50 (Recombinant human MMP-1; Inhibition Table A): > 10000 nM
Structure (SMILES): O=C(NO)c1ccccc1CS(=O)(=O)c1ccc(Oc2ccccc2)cc1 [Example 1, N-hydroxy-2-[[(4-phenoxyphenyl)-sulfonyl]methyl]benzamide]

- IC50 (Recombinant human MMP-1; Inhibition Table A): > 10000 nM
Structure (SMILES): O=C(NO)c1ccccc1S(=O)(=O)N1CCC(Oc2ccc(C(F)(F)F)cc2)CC1 [Example 13, N-hydroxy-2-[[4-[4-(trifluoromethyl)phenoxy]-1-piperidinyl]sulfonyl]benzamide]

- IC50 (Recombinant human MMP-13; Inhibition Table A): > 10000 nM
- IC50 (Recombinant human MMP-1; Inhibition Table A): > 10000 nM
Structure (SMILES): COc1ccc(NS(=O)(=O)c2ccccc2C(=O)NO)cc1 [Example 7, N-hydroxy-2-[(4-methoxyanilino)sulfonyl]benzamide]

- IC50 (Recombinant human MMP-13; Inhibition Table A): 900 nM
- IC50 (Recombinant human MMP-1; Inhibition Table A): > 10000 nM
- IC50 (Recombinant human MMP-2; Inhibition Table A): 35 nM
Structure (SMILES): O=C(NO)c1ccccc1S(=O)(=O)N1CCC(OCc2ccc(C(F)(F)F)cc2)CC1 [Example 14, N-hydroxy-2-[[4-[[4-(trifluoromethyl)phenyl]methoxy]-1-piperidinyl]sulfonyl]benzamide]

- IC50 (Recombinant human MMP-13; Inhibition Table A): 33 nM
- IC50 (Recombinant human MMP-1; Inhibition Table A): > 10000 nM
Structure (SMILES): O=C(NO)c1ccccc1S(=O)(=O)N1CCC(Oc2ccc(OC(F)(F)F)cc2)CC1 [Example 12, N-hydroxy-2-[[4-[4-(trifluoromethoxy)phenoxy]-1-piperidinyl]sulfonyl]benzamide]

- IC50 (Recombinant human MMP-13; Inhibition Table A): 2000 nM
- IC50 (Recombinant human MMP-2; Inhibition Table A): 1800 nM
Structure (SMILES): O=C(NO)c1ccccc1S(=O)(=O)N1CCC(Oc2ccc(C(F)(F)F)cc2)C1 (centres unmarked) [Example 17, N-hydroxy-2-[[3-[4-(trifluoromethyl)phenoxy]-1-pyrrolidinyl]sulfonyl]benzamide]

- IC50 (Recombinant human MMP-1; Inhibition Table A): > 10000 nM
Structure (SMILES): CC(O)(C(=O)NO)c1ccccc1S(=O)(=O)N1CCC(c2ccccc2)CC1 (centres unmarked) [Example 10, N,2-dihydroxy-2-methyl-2-[(4-phenyl-1-piperidinyl)sulfonyl]benzeneacetamide]

- IC50 (Recombinant human MMP-13; Inhibition Table A): > 10000 nM
- IC50 (Recombinant human MMP-1; Inhibition Table A): > 10000 nM
Structure (SMILES): O=C(NO)c1ccccc1S(=O)(=O)NCc1ccccc1 [Example 8, N-hydroxy-2-[(benzylamino)sulfonyl]benzamide]

- IC50 (Recombinant human MMP-13; Inhibition Table A): > 10000 nM
- IC50 (Recombinant human MMP-1; Inhibition Table A): > 10000 nM
- IC50 (Recombinant human MMP-2; Inhibition Table A): > 10000 nM
Structure (SMILES): O=C(NO)c1ccccc1S(=O)(=O)Cc1ccc(-c2ccccc2)cc1 [Example 4, 2-[([1,11-biphenyl]-4-ylmethyl)-sulfonyl]-N-hydroxybenzamide]

- IC50 (Recombinant human MMP-13; Inhibition Table A): 1000 nM
- IC50 (Recombinant human MMP-1; Inhibition Table A): > 10000 nM
- IC50 (Recombinant human MMP-2; Inhibition Table A): 148 nM
Structure (SMILES): O=C(NO)c1ccccc1S(=O)(=O)N1CCC(Cc2ccccc2)CC1 [Example 3, N-hydroxy-2-[[4-(phenylmethyl)-1-piperidinyl]sulfonyl]benzamide]

Structure (SMILES): CCCCOc1ccc(N2CCN(S(=O)(=O)c3ccc(OC)c(OC)c3C(=O)NO)CC2)cc1F [Example 25, 6-[[4-(butoxy-3-fluorophenyl)-1-piperazinyl]sulfonyl]-N-hydroxy-2,3-dimethoxybenzamide]
- IC50 (Recombinant human MMP-8): 252 nM
- IC50 (Recombinant human MMP-13; Table B): 8.5 nM
- IC50 (Recombinant human MMP-14): > 10000 nM
- IC50 (Recombinant human MMP-1; Table B): > 10000 nM
- IC50 (Recombinant human MMP-2; Table B): 0.4 nM
- IC50 (Recombinant human MMP-3): 294 nM
- IC50 (Recombinant human MMP-9): 22.1 nM

- IC50 (Recombinant human MMP-13; Inhibition Table A): 2200 nM
- IC50 (Recombinant human MMP-2; Inhibition Table A): 2300 nM
Structure (SMILES): COc1ccc(C(=O)NC2CCN(S(=O)(=O)c3ccccc3C(=O)NO)C2)cc1 (centres unmarked) [Example 11, N-hydroxy-2-[[3-[(4-methoxybenzoyl)amino]-1-pyrrolidinyl]sulfonyl]benzamide]

- IC50 (Recombinant human MMP-1; Table B): > 10000 nM
Structure (SMILES): COCCOc1cccc(S(=O)(=O)N2CCC(Oc3ccc(C(F)(F)F)cc3)CC2)c1C(=O)NO [Example 23, N-hydroxy-2-(2-methoxyethoxy)-6-[[4-[4-(trifluoromethyl)phenoxy]-1-piperidinyl]sulfonyl]benzamide]

- IC50 (Recombinant human MMP-8): 115 nM
- IC50 (Recombinant human MMP-13; Table B): 2.6 nM
- IC50 (Recombinant human MMP-14): 1700 nM
- IC50 (Recombinant human MMP-1; Table B): > 10000 nM
- IC50 (Recombinant human MMP-2; Table B): 3.3 nM
- IC50 (Recombinant human MMP-3): 100 nM
- IC50 (Recombinant human MMP-9): 370 nM
Structure (SMILES): COc1ccc(-c2ccc(OC3CCN(S(=O)(=O)c4ccc(OC)c(OC)c4C(=O)NO)CC3)cc2)cc1OC [Example 27]
